Article PMC10176470, “Engaging a Non-catalytic Cysteine Residue Drives Potent and Selective Inhibition of Caspase-6” (Journal of the American Chemical Society, 2023)

Legend:
Experiment in all cases: SILAC proteomics / in-gel fluorescence, competition of probe 13-t labeling by 3a
[1] = molecular target: T1, proteins of HEK293T cells transiently overexpressing caspase-6 (Homo sapiens, UniProt O00410)
T1 sequence (O00410 1-1097): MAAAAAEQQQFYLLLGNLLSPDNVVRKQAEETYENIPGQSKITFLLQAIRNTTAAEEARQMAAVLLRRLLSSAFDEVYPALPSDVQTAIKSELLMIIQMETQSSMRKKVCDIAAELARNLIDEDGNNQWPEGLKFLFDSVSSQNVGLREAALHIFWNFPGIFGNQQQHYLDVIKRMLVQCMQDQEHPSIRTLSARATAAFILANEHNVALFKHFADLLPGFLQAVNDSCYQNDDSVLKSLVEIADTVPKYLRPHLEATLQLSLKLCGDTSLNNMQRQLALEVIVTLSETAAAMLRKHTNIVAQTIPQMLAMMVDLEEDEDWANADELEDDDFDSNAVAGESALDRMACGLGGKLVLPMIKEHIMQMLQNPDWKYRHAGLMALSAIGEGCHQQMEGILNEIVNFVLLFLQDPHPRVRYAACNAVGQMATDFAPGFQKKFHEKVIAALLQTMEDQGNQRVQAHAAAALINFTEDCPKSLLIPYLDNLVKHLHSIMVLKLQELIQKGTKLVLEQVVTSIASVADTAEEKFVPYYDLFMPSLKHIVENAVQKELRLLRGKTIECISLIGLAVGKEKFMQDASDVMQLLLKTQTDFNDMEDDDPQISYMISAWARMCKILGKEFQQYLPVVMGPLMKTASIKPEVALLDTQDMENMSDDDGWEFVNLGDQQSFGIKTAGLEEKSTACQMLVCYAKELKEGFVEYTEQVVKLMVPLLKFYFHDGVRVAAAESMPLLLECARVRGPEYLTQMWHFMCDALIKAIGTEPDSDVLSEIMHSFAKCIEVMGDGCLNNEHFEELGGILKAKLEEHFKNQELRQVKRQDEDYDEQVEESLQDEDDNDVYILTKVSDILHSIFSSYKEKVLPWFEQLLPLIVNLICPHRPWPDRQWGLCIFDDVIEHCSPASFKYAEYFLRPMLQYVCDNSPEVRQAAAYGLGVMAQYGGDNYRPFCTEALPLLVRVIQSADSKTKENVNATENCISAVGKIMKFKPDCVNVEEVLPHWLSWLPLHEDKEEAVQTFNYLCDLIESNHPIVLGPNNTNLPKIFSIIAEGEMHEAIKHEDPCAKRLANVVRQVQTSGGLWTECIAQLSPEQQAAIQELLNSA
Protocol: (§1) Cells were lysed, and heavy and light SILAC lysates were combined in a 1:1 ratio and subjected to CuAAC reaction with azido-biotin to biotinylate probe-labeled proteins for subsequent capture on streptavidin-coated beads. Bead-bound proteins were split for analysis by in-gel fluorescence and tryptic digestion on-bead for LC–MS/MS analysis.
(§2) SILAC labeling and alkyne probe treatment: HEK293T cells were seeded into 8x 15 cm plates at
(§3) a density of 500,000 cells/plate. 4 of these plates were grown in light SILAC DMEM and 4 were
(§4) grown in heavy SILAC DMEM all containing 10% FBS and 4.5g/L glucose. The next day, all 8
(§5) plates were transfected with a pCMV6-Entry plasmid coding for caspase-6-myc-DDK lacking the
(§6) prodomain. After 24 hours, media was replaced with fresh SILAC growth media containing 4.5 g/L
(§7) glucose and 3% FBS. 24 hours later the plates were treated with probe and inhibitor for 1 hours as
(§8) follows: 2 of the light plates were treated with vehicle, 2 light plates and 2 heavy plates treated with
(§9) for 60 minutes. After treatment, media was removed, and cells were washed with 15 mL PBS for 5
(§10) minutes. Cells were then harvested by scraping in cold PBS and lysed in the presence of Roche
(§11) complete protease inhibitors. Lysates were clarified by centrifugation at 10,000xg for 10 minutes and
(§12) the protein in the supernatant was quantified by BCA assay.
(§13) Proteomics assay: 1 mg of each lysate was diluted to 2mg/ml in PBS with Roche complete protease
(§14) inhibitors. To this was added 0.1 mM biotin-azide, 1 mM tris(2-carboxyethyl)phosphine (TCEP), 0.1
(§15) mM Tris((1-benzyl-4-triazolyl)methyl)amine (TBTA) ligand, and 1 mM CuSO4 in a final volume of
(§16) 0.5 mL. The reaction was incubated at room temperature for 1 hour and was vortexed every 15
(§17) minutes. After 1 hour, proteins are precipitated and are pelleted by centrifuging at 16,000xg for 4
(§18) min at 4 °C. The supernatants were discarded, and the pellets were solubilized with 0.5 mL cold
(§19) The cold methanol wash was then repeated, and the washed
(§20) pellets were resuspended in 1 mL of 1.2% SDS and sonicated until clear. The samples were heat
(§21) denatured at 80-90 °C for 5 minutes and any insoluble particles were removed by centrifugation at
(§22) 6,500xg for 5 minutes. The 1 mL supernatant was transferred to a 15 mL conical tubes containing 5
(§23) mL of PBS and 150 µL of washed neutravidin beads were added. The samples were incubated for 2
(§24) hours at 4 °C while rotating, at which point the samples were warmed to resolubilize any precipitated
(§25) SDS. The beads were pelleted by centrifugation at 1400xg for 3 min and washed for 10 minutes with
(§26) the following solutions: 2x 1% NP-40, 2x PBS + 1 M NaCl, and 2x 50 mM ammonium bicarbonate
(§27) (ABC) + 2 M urea. The beads were then transferred to a 1.5 mL microcentrifuge tube using 2x250
(§28) µL 100 mM Tris pH 8.0 + 4 M Guanidium hydrochloride (final volume 500 µL).

[2] = molecular target: proteins of HEK293T cells transiently overexpressing caspase-6 (Homo sapiens, UniProt P12268)
Protocol: as §1, §2, §3, §4, §5, §6, §7, §8, §9, §10, §11, §12, §13, §14, §15, §16, §17, §18, §19, §20, §21, §22, §23, §24, §25, §26, §27, §28

[3] = molecular target: proteins of HEK293T cells transiently overexpressing caspase-6 (Homo sapiens, UniProt P35998); conditions: Comp; protein PSMC2 P35998
Protocol: as §1, §2, §3, §4, §5, §6, §7, §8, §9, §10, §11, §12, §13, §14, §15, §16, §17, §18, §19, §20, §21, §22, §23, §24, §25, §26, §27, §28

[4] = molecular target: proteins of HEK293T cells transiently overexpressing caspase-6 (Homo sapiens, UniProt P57088); conditions: Comp; protein TMEM33 P57088
Protocol: as §1, §2, §3, §4, §5, §6, §7, §8, §9, §10, §11, §12, §13, §14, §15, §16, §17, §18, §19, §20, §21, §22, §23, §24, §25, §26, §27, §28

[5] = molecular target: proteins of HEK293T cells transiently overexpressing caspase-6 (Homo sapiens, UniProt O00299); conditions: Comp; protein CLIC1 O00299
Protocol: as §1, §2, §3, §4, §5, §6, §7, §8, §9, §10, §11, §12, §13, §14, §15, §16, §17, §18, §19, §20, §21, §22, §23, §24, §25, §26, §27, §28

[6] = molecular target: proteins of HEK293T cells transiently overexpressing caspase-6 (Homo sapiens, UniProt P05141); conditions: Comp; protein SLC25A5 P05141
Protocol: as §1, §2, §3, §4, §5, §6, §7, §8, §9, §10, §11, §12, §13, §14, §15, §16, §17, §18, §19, §20, §21, §22, §23, §24, §25, §26, §27, §28

[7] = molecular target: proteins of HEK293T cells transiently overexpressing caspase-6 (Homo sapiens, UniProt P46060); conditions: Comp; protein RANGAP1 P46060
Protocol: as §1, §2, §3, §4, §5, §6, §7, §8, §9, §10, §11, §12, §13, §14, §15, §16, §17, §18, §19, §20, §21, §22, §23, §24, §25, §26, §27, §28

[8] = molecular target: proteins of HEK293T cells transiently overexpressing caspase-6 (Homo sapiens, UniProt P31946); conditions: Comp; protein YWHAB P31946
Protocol: as §1, §2, §3, §4, §5, §6, §7, §8, §9, §10, §11, §12, §13, §14, §15, §16, §17, §18, §19, §20, §21, §22, §23, §24, §25, §26, §27, §28

[9] = molecular target: T2, proteins of HEK293T cells transiently overexpressing caspase-6 (Homo sapiens, UniProt P62258); conditions: Comp; protein YWHAE P62258
T2 sequence (P62258 1-255): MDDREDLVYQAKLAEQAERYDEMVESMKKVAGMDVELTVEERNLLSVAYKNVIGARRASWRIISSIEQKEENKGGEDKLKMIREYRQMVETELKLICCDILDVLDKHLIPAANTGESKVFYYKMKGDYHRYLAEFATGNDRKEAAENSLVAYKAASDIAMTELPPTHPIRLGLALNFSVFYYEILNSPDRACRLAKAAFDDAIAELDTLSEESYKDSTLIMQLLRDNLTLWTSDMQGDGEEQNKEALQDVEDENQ
Protocol: as §1, §2, §3, §4, §5, §6, §7, §8, §9, §10, §11, §12, §13, §14, §15, §16, §17, §18, §19, §20, §21, §22, §23, §24, §25, §26, §27, §28

[10] = molecular target: proteins of HEK293T cells transiently overexpressing caspase-6 (Homo sapiens, UniProt P14625); conditions: Comp; protein HSP90B1 P14625
Protocol: as §1, §2, §3, §4, §5, §6, §7, §8, §9, §10, §11, §12, §13, §14, §15, §16, §17, §18, §19, §20, §21, §22, §23, §24, §25, §26, §27, §28

[11] = molecular target: proteins of HEK293T cells transiently overexpressing caspase-6 (Homo sapiens, UniProt P62753); conditions: Comp; protein RPS6 P62753
Protocol: as §1, §2, §3, §4, §5, §6, §7, §8, §9, §10, §11, §12, §13, §14, §15, §16, §17, §18, §19, §20, §21, §22, §23, §24, §25, §26, §27, §28

[12] = molecular target: proteins of HEK293T cells transiently overexpressing caspase-6 (Homo sapiens, UniProt P06733); conditions: Comp; protein ENO1 P06733
Protocol: as §1, §2, §3, §4, §5, §6, §7, §8, §9, §10, §11, §12, §13, §14, §15, §16, §17, §18, §19, §20, §21, §22, §23, §24, §25, §26, §27, §28

[13] = protein IPO5 (O00410), Exp Comp, analysis C6, p 0.0039, 9 peptides
[14] = protein IMPDH2 (P12268), Exp Comp, analysis C6, p 0.0078, 8 peptides

Sequence of proteins of HEK293T cells transiently overexpressing caspase-6 (Homo sapiens, UniProt P14625) (P14625 22-803): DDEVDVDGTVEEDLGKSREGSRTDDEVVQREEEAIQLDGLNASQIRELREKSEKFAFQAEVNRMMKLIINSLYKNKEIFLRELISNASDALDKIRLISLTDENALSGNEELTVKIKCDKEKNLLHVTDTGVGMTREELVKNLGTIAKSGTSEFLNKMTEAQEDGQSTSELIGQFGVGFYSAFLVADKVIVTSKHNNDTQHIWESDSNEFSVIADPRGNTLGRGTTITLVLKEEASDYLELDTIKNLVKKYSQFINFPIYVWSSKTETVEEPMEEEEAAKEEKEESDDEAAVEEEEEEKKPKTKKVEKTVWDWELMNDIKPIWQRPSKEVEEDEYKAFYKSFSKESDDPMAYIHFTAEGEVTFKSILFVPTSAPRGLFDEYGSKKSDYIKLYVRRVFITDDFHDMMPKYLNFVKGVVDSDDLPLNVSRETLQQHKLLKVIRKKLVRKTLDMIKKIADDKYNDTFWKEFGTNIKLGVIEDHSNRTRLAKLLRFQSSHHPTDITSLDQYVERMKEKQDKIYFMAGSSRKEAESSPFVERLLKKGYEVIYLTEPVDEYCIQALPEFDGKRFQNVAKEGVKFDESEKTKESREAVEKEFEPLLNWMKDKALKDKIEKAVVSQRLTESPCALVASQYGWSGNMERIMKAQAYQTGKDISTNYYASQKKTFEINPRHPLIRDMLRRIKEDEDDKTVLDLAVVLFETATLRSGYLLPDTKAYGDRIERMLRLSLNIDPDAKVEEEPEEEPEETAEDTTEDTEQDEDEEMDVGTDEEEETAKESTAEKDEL
Sequence of proteins of HEK293T cells transiently overexpressing caspase-6 (Homo sapiens, UniProt P57088) (P57088 whole entry): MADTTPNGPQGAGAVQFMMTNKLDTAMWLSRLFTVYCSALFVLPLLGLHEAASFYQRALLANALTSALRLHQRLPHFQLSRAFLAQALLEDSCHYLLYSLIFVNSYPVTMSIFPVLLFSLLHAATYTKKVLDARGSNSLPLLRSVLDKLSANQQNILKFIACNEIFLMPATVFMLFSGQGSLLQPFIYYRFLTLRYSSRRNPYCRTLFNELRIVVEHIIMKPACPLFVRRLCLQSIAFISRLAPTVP
Sequence of proteins of HEK293T cells transiently overexpressing caspase-6 (Homo sapiens, UniProt P05141) (P05141 whole entry): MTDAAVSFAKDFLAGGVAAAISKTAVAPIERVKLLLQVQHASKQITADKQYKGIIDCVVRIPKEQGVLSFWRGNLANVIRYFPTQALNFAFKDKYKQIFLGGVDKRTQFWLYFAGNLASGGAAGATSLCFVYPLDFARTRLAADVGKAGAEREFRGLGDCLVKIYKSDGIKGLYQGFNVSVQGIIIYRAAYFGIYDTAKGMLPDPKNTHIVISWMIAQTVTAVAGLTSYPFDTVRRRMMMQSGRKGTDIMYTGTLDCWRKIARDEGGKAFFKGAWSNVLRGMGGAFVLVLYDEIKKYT
Sequence of proteins of HEK293T cells transiently overexpressing caspase-6 (Homo sapiens, UniProt P06733) (P06733 whole entry): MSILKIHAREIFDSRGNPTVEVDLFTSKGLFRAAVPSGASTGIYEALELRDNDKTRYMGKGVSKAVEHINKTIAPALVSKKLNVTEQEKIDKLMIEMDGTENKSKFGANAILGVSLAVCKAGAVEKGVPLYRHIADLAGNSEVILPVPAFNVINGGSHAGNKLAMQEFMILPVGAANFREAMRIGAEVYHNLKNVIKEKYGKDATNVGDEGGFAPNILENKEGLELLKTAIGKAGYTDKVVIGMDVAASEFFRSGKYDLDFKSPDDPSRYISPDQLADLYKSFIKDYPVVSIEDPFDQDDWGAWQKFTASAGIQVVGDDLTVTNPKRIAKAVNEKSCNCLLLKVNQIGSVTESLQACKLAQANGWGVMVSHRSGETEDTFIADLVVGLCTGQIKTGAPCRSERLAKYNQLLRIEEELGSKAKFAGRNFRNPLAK
Sequence of proteins of HEK293T cells transiently overexpressing caspase-6 (Homo sapiens, UniProt P35998) (P35998 whole entry): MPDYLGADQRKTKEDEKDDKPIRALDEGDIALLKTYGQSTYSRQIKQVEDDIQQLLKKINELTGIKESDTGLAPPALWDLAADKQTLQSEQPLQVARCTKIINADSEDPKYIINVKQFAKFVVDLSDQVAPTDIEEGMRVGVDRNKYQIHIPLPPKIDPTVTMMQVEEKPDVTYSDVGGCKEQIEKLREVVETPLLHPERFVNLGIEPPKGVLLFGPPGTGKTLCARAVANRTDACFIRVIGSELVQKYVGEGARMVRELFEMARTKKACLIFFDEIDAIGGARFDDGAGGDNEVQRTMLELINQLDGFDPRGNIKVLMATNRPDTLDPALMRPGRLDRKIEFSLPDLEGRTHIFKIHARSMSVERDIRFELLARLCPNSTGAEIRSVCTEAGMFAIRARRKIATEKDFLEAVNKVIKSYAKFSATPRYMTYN
Sequence of proteins of HEK293T cells transiently overexpressing caspase-6 (Homo sapiens, UniProt P31946) (P31946 whole entry): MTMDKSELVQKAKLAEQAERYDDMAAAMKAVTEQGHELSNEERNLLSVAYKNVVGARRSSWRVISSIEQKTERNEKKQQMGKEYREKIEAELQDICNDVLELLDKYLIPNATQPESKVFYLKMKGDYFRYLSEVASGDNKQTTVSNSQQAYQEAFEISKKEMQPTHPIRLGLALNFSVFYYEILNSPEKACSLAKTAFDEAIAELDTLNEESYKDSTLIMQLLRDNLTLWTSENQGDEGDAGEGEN
Sequence of proteins of HEK293T cells transiently overexpressing caspase-6 (Homo sapiens, UniProt P46060) (P46060 whole entry): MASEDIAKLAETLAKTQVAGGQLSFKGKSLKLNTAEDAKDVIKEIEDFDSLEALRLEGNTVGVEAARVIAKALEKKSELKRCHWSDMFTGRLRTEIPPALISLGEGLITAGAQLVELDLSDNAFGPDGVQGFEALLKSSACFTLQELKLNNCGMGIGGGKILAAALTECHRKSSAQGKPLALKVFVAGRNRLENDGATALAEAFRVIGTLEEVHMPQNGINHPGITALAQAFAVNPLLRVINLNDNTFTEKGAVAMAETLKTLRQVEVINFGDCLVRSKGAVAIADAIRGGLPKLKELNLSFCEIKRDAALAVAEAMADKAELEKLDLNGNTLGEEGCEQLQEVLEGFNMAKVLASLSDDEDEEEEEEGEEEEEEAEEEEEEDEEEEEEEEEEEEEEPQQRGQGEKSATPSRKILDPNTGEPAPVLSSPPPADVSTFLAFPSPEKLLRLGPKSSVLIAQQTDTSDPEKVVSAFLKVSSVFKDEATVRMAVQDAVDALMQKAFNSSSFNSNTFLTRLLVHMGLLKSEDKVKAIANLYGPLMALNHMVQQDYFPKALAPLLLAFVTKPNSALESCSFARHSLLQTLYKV

`C=CS(=O)(=O)N1C[C@H](C(=O)Nc2ccc(OC(F)(F)F)cc2)C[C@@H](c2ccccc2)C1` [3a] was tested, and the enrich.exp.med ([1]; Comp, protein IPO5 O00410) was 1, the enrich.exp.med.lin [1, 13] was 2 and the enrich.exp.med.log2 [1, 13] was 1. It also gave an enrich.exp.med ([2]; Comp, protein IMPDH2 P12268) of 0.9888, an enrich.exp.med.lin [2, 14] of 1.985 and an enrich.exp.med.log2 [2, 14] of 0.9888. For the same compound, the enrich.exp.med [3] was 0.924, the enrich.exp.med [4] was 0.7492 and the enrich.exp.med [5] was 0.583. The enrich.exp.med [6] was 0.6101, the enrich.exp.med [7] was 0.6389 and the enrich.exp.med [8] was 0.6188. It also gave an enrich.exp.med [9] of 0.6349, an enrich.exp.med [10] of 0.7874 and an enrich.exp.med [11] of 0.7055. It also gave an enrich.exp.med [12] of 0.6321.
